Measurements from US5387709A, “Substituted sulfonamides, process of preparation and medicines containing same” (Lipha Lyonnaise Industrielle Pharmaceutique, priority 1990, dated 1995).
pIC50: −log10 of the molar value. Read-outs that look alike come from different tables or passages of the source.

How the values were obtained:
rat aorta = assay: Inhibition of the U46619 induced rat aorta vasoconstriction; type: cell-based; settings: contraction by U46619 (142 nM), rat thoracic aorta, 37° C., read-out: VASOCONSTRICTION RAT AORTA IC 50
Procedure: (B) Inhibition of the U46619 induced rat aorta vasoconstriction:
male rats weighing about 300 g are put to death by euthanasia; the thoracic aorta is rapidly taken out. A sample of about 1 cm is cut into a spiral, and placed in a vat containing 20 ml of nutrient medium (Krebs-Henseleit) kept a 37° C. and oxygenated (O2 95%, CO2 5%). The contractions are recorded with an isotonic strain gauge. After a rest of 45 mn, supramaximum contractions are provoked by the addition of an analogue of TXA2 (U46619: 142 nM) to the survival medium. A plateau is generally reached after 10 mn of contact, the latter not exceeding 25 mn. A rest of 30 mn and a plurality of rinses take place after each contraction. The products are added 10 mn after U46619 and allowed to rest 15 mn, after which delay the inhibition is measured. The inhibitory concentration 50 (IC) is determined for each compound studied and on a minimum of 3 aortas. The activities of the compounds of the present invention are described in example 108.
(§1) The products of examples 1 to 107 have been tested for platelet aggregation on guinea-pig and on the contraction of the aorta in rat as described previously.

platelets of guinea-pig = assay: Inhibition of the platelet aggregation induced by U46619 (BORN test), guinea-pig platelets; type: cell-based; settings: read-out: PLATELET AGGREGATION GUINEA-PIG IC 50
Excerpt: (A) Inhibition of the platelet aggregation induced by U46619, a stable analogue of TXA2 (9,11-dideoxy-11α,9α-epoxymethanoprostaglandine F2 α):
The tests determine a concentration of compound which inhibits at 50% (CI50) a liminar aggregation induced by U46619. The activities of the compounds of the present invention are given in example 108.
as §1

Row | Compound | pIC50 (rat aorta; Rattus norvegicus) | pIC50 (platelets of guinea-pig; Cavia porcellus, Platelet) | pIC50 (rat aorta) | pIC50 (platelets of guinea-pig)
1 | O=C(O)Cc1ccc(CC2(CNS(=O)(=O)c3cccc4ccccc34)CCCC2)cc1 [Example 96, 4-[[1-[[[(Naphthalen-1-yl)sulfonyl]amino]methyl]cyclopentyl]methyl]benzeneacetic acid] | < 6.00 | 6.12 |  | 
2 | O=C(O)Cc1ccc(OC2CCCC2NS(=O)(=O)c2ccc(Cl)cc2)cc1 (centres unmarked) [Example 9, 4-[2-[[(4-chlorophenyl)sulfonyl]amino]cyclopentyloxy]benzeneacetic acid] | 6.00 | < 4.70 |  | 
3 | Nc1ccc(S(=O)(=O)NCC2(Cc3ccc(Cc4nnn[nH]4)cc3)CCCC2)cc1 [Example 82, 4-Amino-N-[1-[[[4-[(1H-tetrazol-5-yl)methyl]phenyl]methyl]cyclopentyl]methyl]benzenesulfonamide] | 6.00 | 5.70 |  | 
4 | CC(=O)c1ccc(S(=O)(=O)NCC2(Cc3ccc(CCO)cc3)CCCC2)cc1 [Example 43, 4-Acetyl-N-[[1-[[4-(2-hydroxyethyl)phenyl]methyl]cyclopentyl]methyl]-benzenesulfonamide] | < 6.00 | < 5.30 |  | 
5 | CC1(C)C(C)(C)C1(CNS(=O)(=O)c1ccc(Cl)cc1)Cc1ccc(CC(=O)O)cc1 [Example 90, 4-[[1-[[[(4-Chlorophenyl)sulfonyl]amino]methyl]-2,2,3,3-tetramethylcyclopropyl]methyl]benzeneacetic acid] | < 6.00 | < 5.30 |  | 
6 | O=C(O)Cc1ccc(CC2(CNS(=O)(=O)c3ccc(Cl)cc3F)CCCC2)cc1 [Example 105, 4-[[1-[[[(4-Chloro-2-fluorophenyl)sulfonyl]amino]methyl]cyclopentyl]methyl]benzeneacetic acid] | 6.96 | 6.24 |  | 
7 | O=C(O)Cc1ccc(CC2(CNS(=O)(=O)c3ccc([N+](=O)[O-])cc3)CCCC2)cc1 [Example 95] | 6.55 | 6.24 |  | 
8 | O=C(O)CCC(=O)c1ccc(CC2(CNS(=O)(=O)c3ccc(Cl)cc3)CCCC2)cc1 [Example 30, 4-[4-[[1-[[[(4-Chlorophenyl)sulfonyl]amino]methyl]cyclopentyl]methyl]phenyl]-4-oxobutanoic acid] | 6.00 | 6.04 |  | 
9 | O=C(Cc1ccc(CC2(CNS(=O)(=O)c3ccc(Cl)cc3)CCCC2)cc1)N1CCOCC1 [Example 74, 4-Chloro-N-[[1-[[4-[2-(morpholin-4-yl)-2-oxoethyl]phenyl]methyl]cyclopentyl]methyl]benzenesulfonamide] | < 6.00 | < 5.30 |  | 
10 | O=C(O)Cc1ccc(CC2(CNS(=O)(=O)c3ccc(I)cc3)CCCC2)cc1 [Example 54, 4-[[1-[[[(4-Iodophenyl)sulfonyl]amino]methyl]cyclopentyl]methyl]benzeneacetic acid] | 7.40 | 5.96 |  | 
11 | O=P(O)(O)Cc1ccc(CC2(CNS(=O)(=O)c3ccc(Cl)cc3)CCCC2)cc1 [Example 83, [[4-[[1-[[[(4-Chlorophenyl)sulfonyl]amino]methyl]cyclopentyl]methyl]phenyl]methyl]phosphonic acid] | 6.00 | 6.03 |  | 
12 | O=C(O)Cc1ccc(CC2(CNS(=O)(=O)c3ccc(Cl)s3)CCCC2)cc1 [Example 68, 4-[[1-[[[(5-Chlorothien-2-yl)sulfonyl]amino]methyl]cyclopentyl]methyl]benzeneacetic acid] | 6.40 | 5.40 |  | 
13 | O=C(O)Cc1ccc(CC2(CNS(=O)(=O)c3ccc(Cl)cc3Cl)CCCC2)cc1 [Example 59, 4-[[1-[[[(2,4-Dichlorophenyl)sulfonyl]amino]methyl]cyclopentyl]methyl]benzeneacetic acid] | 7.10 | 5.85 |  | 
14 | O=C(O)Cc1ccc(CC2(CNS(=O)(=O)c3ccccc3Cl)CCCC2)cc1 [Example 32, 4-[[1-[[[(2-Chlorophenyl)sulfonyl]amino]methyl]cyclopentyl]methyl]benzeneacetic acid] | 6.40 | 5.74 |  | 
15 | O=C(O)Cc1ccc(CC2(CNS(=O)(=O)c3ccc(OC(F)(F)F)cc3)CCCC2)cc1 [Example 64, 4-[[1-[[[(4-Trifluoromethoxyphenyl)sulfonyl]amino]methyl]cyclopentyl]methyl]benzeneacetic acid] | 6.89 | 5.59 |  | 
16 | CN(C)c1cccc2c(S(=O)(=O)NCC3(Cc4ccc(CC(=O)O)cc4)CCCC3)cccc12 [Example 104, 4-[[1-[[[[5-(Dimethylamino)naphthalen-1-yl]sulfonyl]amino]methyl]cyclopentyl]methyl]benzeneacetic acid] | < 6.00 | < 5.30 |  | 

Row | Compound | pIC50 (rat aorta; Rattus norvegicus) | pIC50 (platelets of guinea-pig; Cavia porcellus, Platelet) | pIC50 (rat aorta) | pIC50 (platelets of guinea-pig)
17 | CC(=O)c1ccc(S(=O)(=O)NCC2(Cc3ccc(CC(=O)O)cc3)CCCC2)cc1 [Example 62, 4-[[1-[[[(4-Acetylphenyl)sulfonyl]amino]methyl]cyclopentyl]methyl]benzeneacetic acid] | 6.12 | 5.52 |  | 
18 | O=C(O)Cc1ccc(CC2(CNS(=O)(=O)c3ccccc3F)CCCC2)cc1 [Example 98, 4-[[1-[[[(2-Fluorophenyl)sulfonyl]amino]methyl]cyclopentyl]methyl]benzeneacetic acid] | 6.49 | 6.60 |  | 
19 | N#Cc1ccc(S(=O)(=O)NCC2(Cc3ccc(CC(=O)O)cc3)CCCC2)cc1 [Example 57, 4-[[1-[[[(4-Cyanophenyl)sulfonyl]amino]methyl]cyclopentyl]methyl]benzeneacetic acid] | 7.00 | 6.16 |  | 
20 | Nc1ccc(S(=O)(=O)NCC2(Cc3ccc(CC(=O)O)cc3)CCCC2)cc1 [Example 86, 4-[[1-[[[(4-Aminophenyl)sulfonyl]amino]methyl]cyclopentyl]methyl]benzeneacetic acid] | 6.00 | 6.29 |  | 
21 | O=C(O)Cc1ccc(C[C@@H]2CCC[C@@H]2NS(=O)(=O)c2ccc(Cl)cc2)cc1 (relative stereo) [Example 3, Cis-4-[[2-[[(4-chlorophenyl)sulfonyl]amino]cyclopentyl]methyl]benzeneaceticacid] | 7.22 | 6.22 |  | 
22 | CCN(CC)CCOC(=O)Cc1ccc(CC2(CNS(=O)(=O)c3ccc(Cl)cc3)CCCC2)cc1 [Example 79, 2-(Diethylamino)ethyl 4-[[1-[[[(4-Chlorophenyl)sulfonyl]amino]methyl]cyclopentyl]methyl]benzeneacetate] | 6.77 | 7.00 |  | 
23 | COC(=O)Cc1ccc(CC2(CNS(=O)(=O)c3ccc(Cl)cc3)CCCC2)cc1 [Example 18, Methyl 4-[[1-[[[(4-chlorophenyl)sulfonyl]amino]methyl]cyclopentyl]methyl]benzeneacetate] | < 6.00 | 6.18 |  | 
24 | CC(C)(C)c1ccc(S(=O)(=O)NCC2(Cc3ccc(CC(=O)O)cc3)CCCC2)cc1 [Example 61, 4-[[1-[[[[4-(1,1-Dimethylethyl)phenyl]sulfonyl]amino]methyl]cyclopentyl]methyl]benzeneacetic acid] | < 6.00 | < 5.30 |  | 
25 | Complex of sodium trans-4-[[2-[[(4-chlorophenyl)sulfonyl]amino]cyclopentyl]methyl]benzeneacetate and β-cyclodextrine (1:1) [Example 22] |  |  | 6.82 | 6.15
26 | O=C(O)Cc1ccc(C2(CNS(=O)(=O)c3ccc(Cl)cc3)CCCC2)cc1 [Example 14, 4-[1-[[[(4-Chlorophenyl)sulfonyl]amino]methyl]cyclopentyl]benzeneacetic acid] | 7.15 | 5.26 |  | 
27 | O=C(O)Cc1ccc([C@@H]2CCCC[C@H]2NS(=O)(=O)c2ccc(Cl)cc2)cc1 (relative stereo) [Example 10, Trans-4-[2-[[(4-chlorophenyl)sulfonyl]amino]cyclohexyl]benzeneacetic acid] | 5.30 | 5.89 |  | 
28 | O=C(O)Cc1ccc(CC2(CNS(=O)(=O)c3ccc(Cl)cc3)CCCCC2)cc1 [Example 87, 4-[[1-[[[(4-Chlorophenyl)sulfonyl]amino]methyl]cyclohexyl]methyl]benzeneacetic acid] | 6.22 | 5.40 |  | 
29 | O=C(O)Cc1ccc(CC2(CNS(=O)(=O)c3ccc(Cl)cc3)CCCC2)cc1 [Example 19, 4-[[1-[[[(4-Chlorophenyl)sulfonyl]amino]methyl]cyclopentyl]methyl]benzeneacetic acid] | 7.00 | 6.59 |  | 
30 | O=C(O)Cc1ccc(CC2(CNS(=O)(=O)c3ccc(Cl)cc3)CC2)cc1 [Example 72, 4-[[1-[[[(4-Chlorophenyl)sulfonyl]amino]methyl]cyclopropyl]methyl]benzeneacetic acid] | 7.40 | 6.19 |  | 
31 | O=C(O)Cc1ccc(CC2(CNS(=O)(=O)c3ccc(C4CCCCC4)cc3)CCCC2)cc1 [Example 99, 4-[[1-[[[(4-Cyclohexylphenyl)sulfonyl]amino]methyl]cyclopentyl]methyl]benzeneacetic acid] | < 6.00 | < 5.30 |  | 
